Measurements taken from ChEMBL document CHEMBL3992560, “Synthesis and pharmacological evaluation of pyrazolo[1,5-a]pyrimidin-7(4H)-one derivatives as potential GABAA-R ligands” (Bioorg Med Chem, 2017).
Active and inactive are the calls of the source. No cut-off for these calls is given here.

What was measured:
[1] = species: Bos taurus; test: Displacement of [3H]Ro15-1788 from GABA-A receptor benzodiazepine site in bovine brain cerebral cortex membranes at 10 uM relative to control; conditions: Membrane
[2] = Displacement of [3H]Ro15-1788 from GABA-A receptor benzodiazepine site in bovine brain cerebral cortex membranes; set-up: species or system Bos taurus, Membrane
[3] = test system: Mus musculus; test: Anxiolytic-like activity in CD-1 mouse assessed as increase in time spent in light area at 1 to 30 mg/kg, po administered 30 mins prior to test by light/dark exploration test; assay type: functional, organism-based
[4] = test system: Mus musculus; test: Anxiolytic-like activity in CD-1 mouse assessed as time spent in light area at 1 mg/kg, po administered 30 mins prior to test by light/dark exploration test relative to control; assay type: functional
[5] = test system: Rattus norvegicus; test: Anxiolytic-like activity in Sprague-Dawley rat assessed as time spent in open arms at 1 mg/kg, po administered 30 mins prior to test by elevated […] maze test relative to control; assay type: functional
[6] = test system: Rattus norvegicus; test: Anxiolytic-like activity in Sprague-Dawley rat assessed as total number of arm entries at 1 mg/kg, po administered 30 mins prior to test by elevated […] maze test; assay type: functional
[7] = test system: Mus musculus; test: Anxiolytic-like activity in CD-1 mouse assessed as number of transfer from one compartment to other at 1 mg/kg, po administered 30 mins prior to test by light/dark exploration test; assay type: functional
[8] = molecular target: GABA-A receptor; alpha-5/beta-3/gamma-2 (Homo sapiens) (UniProt P18507+P28472+P31644); test: Displacement of [3H]Ro15-1788 from GABA-Aalpha5beta3gamma2 receptor (unknown origin) expressed in cell membranes after 1 hr relative to control
[9] = test system: Mus musculus; test: Anxiolytic-like activity in CD-1 mouse assessed as time spent in light area at 30 mg/kg, po administered 30 mins prior to test by light/dark exploration test relative to control; assay type: functional
[10] = test system: Mus musculus; test: Anxiolytic-like activity in CD-1 mouse assessed as time spent in light area at 10 mg/kg, po administered 30 mins prior to test followed by flumazenil injection by light/dark exploration test relative to control; assay type: functional
[11] = test system: Mus musculus; test: Anxiolytic-like activity in CD-1 mouse assessed as time spent in light area at 3 mg/kg, po administered 30 mins prior to test by light/dark exploration test relative to control; assay type: functional
[12] = test system: Mus musculus; test: Anxiolytic-like activity in CD-1 mouse assessed as time spent in light area at 10 mg/kg, po administered 30 mins prior to test by light/dark exploration test relative to control; assay type: functional
[13] = test system: Mus musculus; test: Anxiolytic-like activity in CD-1 mouse assessed as number of transfer from one compartment to other at 10 mg/kg, po administered 30 mins prior to test by light/dark exploration test; assay type: functional
[14] = test system: Mus musculus; test: Anxiolytic-like activity in CD-1 mouse assessed as number of transfer from one compartment to other at 3 mg/kg, po administered 30 mins prior to test by light/dark exploration test; assay type: functional
[15] = test system: Rattus norvegicus; test: Anxiolytic-like activity in Sprague-Dawley rat assessed as total number of arm entries at 10 mg/kg, po administered 30 mins prior to test by elevated […] maze test; assay type: functional
[16] = test system: Rattus norvegicus; test: Anxiolytic-like activity in Sprague-Dawley rat assessed as time spent in open arms at 10 mg/kg, po administered 30 mins prior to test by elevated […] maze test relative to control; assay type: functional
[17] = molecular target: T1, GABA-A receptor; alpha-1/beta-2/gamma-2 (Homo sapiens, UniProt P14867+P18507+P47870); test: Displacement of [3H]Ro15-1788 from GABA-Aalpha1beta2gamma2 receptor (unknown origin) expressed in cell membranes after 1 hr
T1 sequence (P14867 whole entry): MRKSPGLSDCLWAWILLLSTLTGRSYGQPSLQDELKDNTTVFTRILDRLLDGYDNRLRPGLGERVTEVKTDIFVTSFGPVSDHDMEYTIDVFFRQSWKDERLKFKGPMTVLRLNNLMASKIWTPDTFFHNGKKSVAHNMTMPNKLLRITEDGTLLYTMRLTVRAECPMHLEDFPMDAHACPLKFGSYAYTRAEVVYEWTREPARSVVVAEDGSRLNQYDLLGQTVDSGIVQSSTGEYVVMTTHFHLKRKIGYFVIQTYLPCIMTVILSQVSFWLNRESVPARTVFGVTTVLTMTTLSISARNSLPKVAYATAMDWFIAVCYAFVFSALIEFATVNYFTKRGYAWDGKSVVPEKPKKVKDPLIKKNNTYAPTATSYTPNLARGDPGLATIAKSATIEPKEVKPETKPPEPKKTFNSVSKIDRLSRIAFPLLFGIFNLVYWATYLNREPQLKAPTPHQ
T1 sequence (P47870 whole entry): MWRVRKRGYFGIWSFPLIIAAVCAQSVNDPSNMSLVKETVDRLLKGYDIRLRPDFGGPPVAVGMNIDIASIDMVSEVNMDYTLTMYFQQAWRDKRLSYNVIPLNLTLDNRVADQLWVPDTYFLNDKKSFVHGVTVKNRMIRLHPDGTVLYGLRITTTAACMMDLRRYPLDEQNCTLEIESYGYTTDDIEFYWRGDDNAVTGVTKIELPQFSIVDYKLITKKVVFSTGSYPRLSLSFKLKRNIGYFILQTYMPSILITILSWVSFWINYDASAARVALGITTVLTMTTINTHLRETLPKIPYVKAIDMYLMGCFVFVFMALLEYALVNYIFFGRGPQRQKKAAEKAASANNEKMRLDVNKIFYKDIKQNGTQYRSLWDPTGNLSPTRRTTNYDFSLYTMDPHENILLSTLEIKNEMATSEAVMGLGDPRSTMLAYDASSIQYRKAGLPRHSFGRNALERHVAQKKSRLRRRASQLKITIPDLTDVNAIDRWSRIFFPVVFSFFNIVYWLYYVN
T1 sequence (P18507 whole entry): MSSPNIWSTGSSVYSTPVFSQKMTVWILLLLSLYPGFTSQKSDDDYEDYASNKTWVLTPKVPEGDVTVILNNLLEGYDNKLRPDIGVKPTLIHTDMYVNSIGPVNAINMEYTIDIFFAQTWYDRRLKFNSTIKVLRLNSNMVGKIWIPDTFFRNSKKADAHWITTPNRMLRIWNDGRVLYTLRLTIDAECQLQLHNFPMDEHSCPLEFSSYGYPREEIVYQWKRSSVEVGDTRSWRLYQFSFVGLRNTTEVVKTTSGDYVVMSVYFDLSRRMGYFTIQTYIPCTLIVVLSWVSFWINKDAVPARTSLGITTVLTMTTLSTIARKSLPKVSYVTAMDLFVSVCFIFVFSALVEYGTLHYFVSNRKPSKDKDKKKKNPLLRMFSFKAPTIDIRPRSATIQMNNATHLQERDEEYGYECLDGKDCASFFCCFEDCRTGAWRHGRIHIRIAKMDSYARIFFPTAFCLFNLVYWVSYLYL

[18] = test system: Mus musculus; test: Anxiolytic-like activity in CD-1 mouse assessed as number of transfer from one compartment to other at 30 mg/kg, po administered 30 mins prior to test by light/dark exploration test; assay type: functional
[19] = molecular target: GABA A receptor alpha-2/beta-2/gamma-2 (Homo sapiens) (UniProt P47870+P18507+P47869); test: Displacement of [3H]Ro15-1788 from GABA-Aalpha2beta2gamma2 receptor (unknown origin) expressed in cell membranes after 1 hr relative to control
[20] = test system: Mus musculus; test: Anxiolytic-like activity in CD-1 mouse assessed as number of transfer from one compartment to other at 30 mg/kg, po administered 30 mins prior to test followed by flumazenil injection by light/dark exploration test; assay type: functional

Compound: O=c1c(-c2ccccc2)c[nH]c2c(-c3cccc(Br)c3)cnn12
- inhibition [1]: > 80%
- Ki ([2]; read-out: Ki): 39.3 nM

Compound: O=c1c(-c2ccccc2)c[nH]c2c(-c3cccs3)cnn12
- inhibition [1]: > 80%
- Ki ([2]; read-out: Ki): 215 nM

Compound: O=c1c(-c2ccccc2)c[nH]c2c(-c3ccccc3)cnn12
- inhibition [1]: > 80%
- Ki ([2]; read-out: Ki): 368 nM

Compound: O=c1c(-c2ccccc2)c[nH]c2c(-c3ccccn3)cnn12
- inhibition [1]: > 80%
- Ki ([2]; read-out: Ki): 211 nM
- Activity [3]: inactive

Compound: COc1cccc(-c2cnn3c(=O)c(-c4ccccc4)c[nH]c23)c1
- inhibition [1]: > 80%
- Ki ([2]; read-out: Ki): 192 nM

Compound: O=c1c(-c2ccccc2)c[nH]c2c(-c3ccc(F)cc3)cnn12
- inhibition [1]: > 80%
- Ki ([2]; read-out: Ki): 132 nM

Compound: CN1C(=O)CN=C(c2ccccc2)c2cc(Cl)ccc21 [DIAZEPAM]
- Activity [4]: 171.6%
- Ki ([2]; read-out: Ki): 10 nM
- Activity [5]: 34.9%
- Activity [6]: 10.5
- Activity [7]: 8.3

Compound: O=c1c(Cc2ccccc2)c[nH]c2c(-c3cccc(Br)c3)cnn12
- inhibition [1]: > 80%
- Ki ([2]; read-out: Ki): 29.9 nM

Compound: O=c1c(Cc2ccccc2)c[nH]c2c(-c3ccsc3)cnn12
- inhibition [1]: < 80%
- Ki [2]: Not Active

Compound: O=c1c(Cc2ccccc2)c[nH]c2c(-c3ccccn3)cnn12
- inhibition [8]: 31%
- Activity [4]: 113.9%
- Activity [9]: 164.4%
- Activity [10]: 120.08%
- inhibition [1]: > 80%
- Ki ([2]; read-out: Ki): 29.8 nM
- Activity [11]: 145.2%
- Activity [12]: 165.4%
- Activity [13]: 23.9
- Activity [14]: 21.3
- Activity [15]: 10.5
- Activity [16]: 29.6%
- Ki [17]: 183 nM
- Activity [18]: 28.9
- inhibition [19]: 14%
- Activity [7]: 15
- Activity [20]: 12.8

Compound: O=c1c(-c2ccccc2)c[nH]c2c(-c3ccc4ccccc4c3)cnn12
- inhibition [1]: < 80%
- Ki [2]: Not Active

Compound: Cc1cccc(-c2cnn3c(=O)c(Cc4ccccc4)c[nH]c23)c1
- inhibition [1]: > 80%
- Ki ([2]; read-out: Ki): 18 nM

Compound: O=c1c(Cc2ccccc2)c[nH]c2c(-c3cccs3)cnn12
- inhibition [1]: > 80%
- Ki ([2]; read-out: Ki): 502 nM

Compound: O=c1c(Cc2ccccc2)c[nH]c2c(Cc3ccccc3)cnn12
- inhibition [1]: < 80%
- Ki [2]: Not Active

Compound: O=c1c(-c2ccccc2)c[nH]c2c(-c3cccnc3)cnn12
- inhibition [1]: > 80%
- Ki ([2]; read-out: Ki): 58.4 nM

Compound: O=c1c(-c2ccccc2)c[nH]c2c(-c3ccsc3)cnn12
- inhibition [1]: > 80%
- Ki ([2]; read-out: Ki): 72.2 nM

Compound: O=c1c(-c2ccccc2)c[nH]c2c(Cc3ccccc3)cnn12
- inhibition [1]: < 80%
- Ki [2]: Not Active

Compound: O=c1c(Cc2ccccc2)c[nH]c2c(-c3ccccc3)cnn12
- inhibition [1]: > 80%
- Ki ([2]; read-out: Ki): 132 nM

Compound: COc1cccc(-c2cnn3c(=O)c(Cc4ccccc4)c[nH]c23)c1
- inhibition [1]: > 80%
- Ki ([2]; read-out: Ki): 49.6 nM

Compound: O=c1c(Cc2ccccc2)c[nH]c2c(-c3cccc4ccccc34)cnn12
- inhibition [1]: > 80%
- Ki ([2]; read-out: Ki): 112 nM

Compound: O=c1c(-c2ccccc2)c[nH]c2c(-c3cccc(C(F)(F)F)c3)cnn12
- inhibition [1]: > 80%
- Ki ([2]; read-out: Ki): 118 nM

Compound: O=c1c(Cc2ccccc2)c[nH]c2c(-c3cccc(C(F)(F)F)c3)cnn12
- inhibition [1]: > 80%
- Ki ([2]; read-out: Ki): 22.3 nM

Compound: O=c1c(Cc2ccccc2)c[nH]c2c(-c3ccc(F)cc3)cnn12
- inhibition [1]: > 80%
- Ki ([2]; read-out: Ki): 34.6 nM

Compound: O=c1c(-c2ccccc2)c[nH]c2c(-c3cccc4ccccc34)cnn12
- inhibition [1]: > 80%
- Ki ([2]; read-out: Ki): 375 nM

Compound: O=c1c(Cc2ccccc2)c[nH]c2c(-c3ccc4ccccc4c3)cnn12
- inhibition [1]: > 80%
- Ki ([2]; read-out: Ki): 73.3 nM

Compound: O=c1c(Cc2ccccc2)c[nH]c2c(-c3cccnc3)cnn12
- inhibition [1]: > 80%
- Ki ([2]; read-out: Ki): 73.3 nM

Compound: Cc1cccc(-c2cnn3c(=O)c(-c4ccccc4)c[nH]c23)c1
- inhibition [1]: > 80%
- Ki ([2]; read-out: Ki): 87 nM
